Laboratory results from patent US7122686B2, “Analogs of discodermolide and dictyostatin-1, intermediates therefor and methods of synthesis thereof” (University of Pittsburgh, priority 2002, dated 2006).
Entries after “also recorded” stand apart in the source; their conditions may differ.

Tests used:
[1] = tested on: MDA-MB231 (breast); experiment: Cell growth inhibition, MDA-MB231 (breast); format: cell-based, human; settings: for GI50: Homo sapiens, MDA-MB-231, 72 h, read-out: GI50 (μM) MDA-MB231 (breast); for 50% growth inhibitory concentration: human breast cancer cells
Method: (§1) Cell Growth Inhibition[34] Cells were plated (500–2000 cells/well depending on the cell line) in 96-well microplates, allowed to attach and grow for 48 h, then treated with vehicle (4% DMSO, a concentration that allowed doubling times of 24 h or less) or test agent (50, 10, 2, 0.4 and 0.08 μM for the new agents; 0.001, 0.005, 0.010, 0.020 and 0.100 μM for paclitaxel and discodermolide) for the given times. One plate consisted of cells from each line used for a time zero cell number determination. The other plates in a given determination contained eight wells of control cells, eight wells of medium and each agent concentration tested in quadruplicate. Cell numbers were obtained spectrophotometrically (absorbance at 490 nm minus that at 630 nm) in a Dynamax plate reader after treatment with 3-(4,5-dimethylthiazol-2-yl)-5-(3-carboxymethoxyphenyl)-2-(4-sulfophenyl)-2H-tetrazolium (MTS) using phenazine methanesulfonate as the electron acceptor. After initial screening with the above 5-fold dilutions, fifty percent growth inhibitory concentration (GI50) values were determined for each agent by repeating the screen using 2-fold dilutions (five concentrations) centered on the initial estimated GI50 concentration, again in quadruplicate.

[2] = tested on: tubulin; experiment: Tubulin polymerization (microtubule stabilizing activity); format: biochemical, bovine; settings: in comparison to 10 μM paclitaxel; turbidity, cold-induced disassembly
Method: Tubulin Polymerization.[32] Tubulin assembly was followed in a Beckman-Coulter 7400 spectrophotometer, equipped with an electronic Peltier temperature controller, reading absorbance (turbidity) at 350 nm. Reaction mixtures (0.25 mL final volume) contained tubulin (final concentration 10 μM; 1 mg/mL), monosodium glutamate (0.8 M from a stock solution adjusted to pH 6.6 with HCl), DMSO (final volume 4% v/v), and differing concentrations of test agent where indicated. Reaction mixtures without test agent were cooled to 0° C. and added to cuvettes held at 0.25–0.5° C. in the spectrophotometer. Test agent in DMSO was then rapidly mixed in the reaction mixture. Each run contained one positive control (paclitaxel, 10 μM final concentration) and one negative control (DMSO only). Baselines were established at 0.25–2.5° C. and temperature was rapidly raised to 30° C. (in approximately 1 min) and held there for 20 min.

[3] = tested on: 2008 (ovarian); experiment: Cell growth inhibition, 2008 (ovarian); format: cell-based, human; settings: for GI50: Homo sapiens, 72 h, read-out: GI50 (μM) 2008 (ovarian); for 50% growth inhibitory concentration: human ovarian cancer cells
Method: as §1

[4] = tested on: PC3 (prostate); experiment: Cell growth inhibition, PC3 (prostate); format: cell-based; settings: Homo sapiens, 72 h, read-out: GI50 (μM) PC3 (prostate)
Method: as §1

[5] = tested on: paclitaxel binding site on tubulin; experiment: Paclitaxel binding site inhibition assay ([3H]paclitaxel displacement); design: species or system bovine
Method: Paclitaxel binding site inhibition assay. A stock solution of [^3H]paclitaxel (26.8 μM, 16.2 Ci/mmol), obtained from the NCI, was prepared in 37% (v/v) DMSO. The test agents were prepared in 25% (v/v) DMSO-0.75 M monosodium glutamate (prepared from a 2M stock solution adjusted to pH 6.6 with HCl). The radiolabeled paclitaxel and test agents, as indicated in terms of final concentrations, were mixed in equal volumes and warmed to 37° C. A reaction mixture (50 μL) containing 0.75 M monosodium glutamate, 4.0 μM tubulin, and 40 μM ddGTP (a non-hydrolyzable analog of GTP) was prepared and incubated at 37° C. for 30 min to preform microtubules. An equivalent volume of drug mixture with [^3H]paclitaxel was added to preformed polymer and incubated for 30 min at 37° C. Bound [^3H]paclitaxel was separated from free drug by centrifugation of the reaction mixtures at 14000 rpm for 20 min at room temperature. Non-specific binding was determined by addition of a 12-fold excess of docetaxel. Radioactive counts from the supernatant (50 μL) were determined by scintillation spectrometry. Bound [^3H]paclitaxel was calculated from the following: total paclitaxel added to each reaction mixture minus the paclitaxel present in the supernatant (free drug). The % bound values were normalized to the control values with no inhibitor added.

SMILES	50% growth inhibitory concentration [1]	Tubulin polymerization-inducing properties (FIGS. 6A-D, in words) [2]	50% growth inhibitory concentration [3]	also measured
C=C/C=C\[C@H](C)[C@H](OC(N)=O)[C@@H](C)[C@H](O)CC/C=C\[C@H](C)[C@H](O)[C@@H](C)/C=C\CC[C@@H]1OC(=O)[C@H](C)[C@@H](OCOC)[C@H]1C [Compound 41, Carbamic acid, (1S,2S,3R,6Z,8S,9S,10S,11Z)-3,9-dihydroxy-14-[(2S,3S,4S,5R)-4-methoxymethoxy-3,5-dimethyl-6-oxotetrahydropyran-2-yl]-2,8,10-trimethyl-1-[(1S,2Z)-1-methylpenta-2,4-dienyl]tetradeca-6,11-dienyl ester]	submicromolar	more rapid polymer-inducing and cold-resistant properties; also recorded: most potent among these analogs	–	GI50 [1]: 0.87 ± 0.21 µM; GI50 [3]: 0.65 ± 0.25 µM; GI50 [4]: 1.8 ± 0.9 µM; Displacement of [3H]paclitaxel from microtubules (in words) ([5]; 2-fold molar excess of test agent): better than paclitaxel and at almost the same potency as discodermolide
C=C/C=C\[C@H](C)[C@H](OC(N)=O)[C@@H](C)[C@H](O)CC/C=C\[C@H](C)[C@H](O)[C@@H](C)/C=C\CC[C@@H]1O[C@@H](OC)[C@H](C)[C@@H](OCOC)[C@H]1C [Compound 42, Carbamic acid, (1S,2S,3R,6Z,8S,9S,10S,11Z)-3,9-dihydroxy-14-[(2S,3S,4S,5R,6R)-6-methoxy-4-methoxymethoxy-3,5-dimethyltetrahydropyran-2-yl]-2,8,10-trimethyl-1-[(1S,2Z)-1-methylpenta-2,4-dienyl]tetradeca-6,11-dienyl ester]	–	more rapid polymer-inducing and cold-resistant properties	–	GI50 [1]: 3.4 ± 0.8 µM; GI50 [3]: 4.7 ± 0.6 µM; GI50 [4]: 15 ± 3 µM
C=CC=C[C@H](C)[C@H]1OC(=O)CCCCCCCCC=C[C@H](C)[C@H](O)[C@@H](C)C=CCC[C@@H](O)[C@H]1C [Compound 43, (1S,13S,14S,15S,20R,21R,22R)-14,20-Dihydroxy-13,15,21-trimethyl-22-(1-methylpenta-2,4-dienyl)-oxacyclodocosa-11,16-dien-2-one]	15 to 30 µM	–	15 to 30 µM	–
C=CC=C[C@H](C)[C@@H](O)[C@H](C)[C@H](O)CCC=C[C@H](C)[C@@H](O)[C@@H](C)C=CCCCCCCCCCO [Compound 47, (12S,13S,14S,19R,20R,21R,22S)-12,14,20,22-Tetramethylhexacosa-10,15,23,25-tetraene-1,13,19,21-tetraol]	15 to 30 µM	–	15 to 30 µM	–
C=CC=C[C@H](C)[C@@H](O)[C@H](C)[C@H](O)CCC=C[C@H](C)[C@@H](O)[C@@H](C)C=CCCCCCCCCC(=O)OC [Compound 48, (12S,13S,14S,19R,20R,21R,22S)-13,19,21-Trihydroxy-12,14,20,22-tetramethylhexacosa-10,15,23,25-tetraenoic acid methyl ester]	15 to 30 µM	–	15 to 30 µM	–
C=CC=C[C@H](C)[C@@H](O)[C@H](C)[C@H](O)CCC=C[C@H](C)[C@@H](O)[C@@H](C)C=CCCCCCCCCC(=O)O [Compound 49, (12S,13S,14S,19R,20R,21R,22S)-13,19,21-Trihydroxy-12,14,20,22-tetramethylhexacosa-10,15,23,25-tetraenoic acid]	> 50 µM	–	> 50 µM	–
C=CC=CC(C)[C@H]1OC(=O)C=CC=C[C@@H](C)[C@H](O)CCC=C[C@H](C)[C@H](O)[C@@H](C)C=CCC[C@@H](O)[C@H]1C (stereo partly drawn) [Compound 54, (7R,8R,13S,14S,15S,20R,21R,22R,23S)-8,14,20-Trihydroxy-7,13,15,21-tetramethyl-22-(1-methylpenta-2,4-dienyl)-oxacyclodocosa-3,5,11,16-tetraen-2-one]	about 1 μM	–	about 1 μM	[3H]paclitaxel displacement potency relative to discodermolide ([5]; [3H]paclitaxel stoichiometrically bound to microtubules): about ⅓
C=C/C=C\[C@H](C)[C@H](OC(N)=O)[C@@H](C)[C@H](O)[C@@H](C)C/C(C)=C\[C@H](C)[C@@H](O)[C@@H](C)/C=C\[C@@H](O)C[C@@H]1OC(=O)[C@H](C)[C@@H](O)[C@H]1C [discodermolide, (+)-discodermolide]	–	superior to paclitaxel	–	–
